Results: ChEMBL document CHEMBL5634187, “Identification of Selective Imidazopyridine CSF1R Inhibitors” (ACS Med Chem Lett, 2024)
≈ marks a conversion by molar mass, not a printed value.

Legend:
physchem [1] = conditions: buffer, pH 7.4
Description: Solubility of compound at pH 7.4

physchem [2] = conditions: octanol/water
Description: Lipophilicity, logD of the compound

in vitro [3] = conditions: human, Caco-2
Description: Permeability in human Caco-2 cells

[4] = target: CYP450 (isoform not stated) (Homo sapiens, UniProt P04798+P05177+P05181+P08684+P10632+P10635+P11509+P11712+P13584+P20813+P20815+P20853+P24462+P24903+P33260+P33261+P51589+P78329+P98187+Q02928+Q08477+Q16678+Q16696+Q5TCH4+Q6VVX0+Q7Z449+Q8TAV3+Q96SQ9+Q9HB55); assay: in vitro
in vitro [5] = conditions: human, liver microsomes
Description: Intrinsic clearance in human liver microsomes

in vitro [6] = conditions: rat, liver microsomes
Description: Intrinsic clearance in rat liver microsomes

Cytochrome P450 3A4 = Cytochrome P450 3A4 (Homo sapiens, UniProt P08684); assay: Inhibition of CYP450 3A4 (unknown origin) using midazolam as substrate; assay type: ADME
in vivo [7] = conditions: Sprague-Dawley, rat, iv, 1 mg/kg
in vivo [8] = conditions: Sprague-Dawley, rat, iv, 1 mg/kg; remark: listed apart in the source
Description: Half-life in Sprague-Dawley rat at 1 mg/kg, iv

in vivo [9] = conditions: Sprague-Dawley, rat, iv, 1 mg/kg; remark: listed apart in the source
Description: Clearance in Sprague-Dawley rat at 1 mg/kg, iv

in vivo [10] = conditions: Sprague-Dawley, rat, iv, 1 mg/kg; remark: listed apart in the source
in vivo [11] = conditions: Sprague-Dawley, rat, po, 3 mg/kg
in vivo [12] = conditions: Sprague-Dawley, rat, po, 3 mg/kg; remark: listed apart in the source
in vivo [13] = conditions: Sprague-Dawley, rat, po, 3 mg/kg; remark: listed apart in the source
Description: Half-life in Sprague-Dawley rat at 3 mg/kg, po

in vivo [14] = conditions: Sprague-Dawley, rat, po, 3 mg/kg; remark: listed apart in the source
[15] = target: Mast/stem cell growth factor receptor Kit (Homo sapiens, UniProt P10721)
Chain of Mast/stem cell growth factor receptor Kit (P10721 whole entry): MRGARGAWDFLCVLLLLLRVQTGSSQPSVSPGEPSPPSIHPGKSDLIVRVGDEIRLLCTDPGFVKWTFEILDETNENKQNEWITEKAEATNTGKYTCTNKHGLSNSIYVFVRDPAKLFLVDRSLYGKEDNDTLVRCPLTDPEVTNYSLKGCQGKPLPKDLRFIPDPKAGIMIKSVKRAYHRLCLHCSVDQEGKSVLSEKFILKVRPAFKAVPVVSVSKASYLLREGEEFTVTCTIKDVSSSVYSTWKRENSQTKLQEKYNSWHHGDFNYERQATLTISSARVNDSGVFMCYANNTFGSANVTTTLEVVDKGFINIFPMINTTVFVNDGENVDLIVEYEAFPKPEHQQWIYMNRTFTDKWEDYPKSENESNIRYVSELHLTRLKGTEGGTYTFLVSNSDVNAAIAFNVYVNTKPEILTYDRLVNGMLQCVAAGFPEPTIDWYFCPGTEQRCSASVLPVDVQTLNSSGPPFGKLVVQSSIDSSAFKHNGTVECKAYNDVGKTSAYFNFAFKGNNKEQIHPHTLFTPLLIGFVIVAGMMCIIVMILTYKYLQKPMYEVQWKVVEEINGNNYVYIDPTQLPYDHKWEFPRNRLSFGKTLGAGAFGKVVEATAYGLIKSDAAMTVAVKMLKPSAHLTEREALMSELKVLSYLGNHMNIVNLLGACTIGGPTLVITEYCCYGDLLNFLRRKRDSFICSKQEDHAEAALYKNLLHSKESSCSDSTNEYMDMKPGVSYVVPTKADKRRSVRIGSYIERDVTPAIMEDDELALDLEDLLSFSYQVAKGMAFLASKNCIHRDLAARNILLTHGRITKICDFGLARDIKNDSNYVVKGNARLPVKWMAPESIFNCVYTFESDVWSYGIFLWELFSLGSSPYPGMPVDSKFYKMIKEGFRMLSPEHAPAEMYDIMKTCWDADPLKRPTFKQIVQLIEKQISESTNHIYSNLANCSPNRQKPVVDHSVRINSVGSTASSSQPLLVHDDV
Description: Inhibition of c-Kit (unknown origin)

Chain of Cytochrome P450 3A4 (P08684 whole entry): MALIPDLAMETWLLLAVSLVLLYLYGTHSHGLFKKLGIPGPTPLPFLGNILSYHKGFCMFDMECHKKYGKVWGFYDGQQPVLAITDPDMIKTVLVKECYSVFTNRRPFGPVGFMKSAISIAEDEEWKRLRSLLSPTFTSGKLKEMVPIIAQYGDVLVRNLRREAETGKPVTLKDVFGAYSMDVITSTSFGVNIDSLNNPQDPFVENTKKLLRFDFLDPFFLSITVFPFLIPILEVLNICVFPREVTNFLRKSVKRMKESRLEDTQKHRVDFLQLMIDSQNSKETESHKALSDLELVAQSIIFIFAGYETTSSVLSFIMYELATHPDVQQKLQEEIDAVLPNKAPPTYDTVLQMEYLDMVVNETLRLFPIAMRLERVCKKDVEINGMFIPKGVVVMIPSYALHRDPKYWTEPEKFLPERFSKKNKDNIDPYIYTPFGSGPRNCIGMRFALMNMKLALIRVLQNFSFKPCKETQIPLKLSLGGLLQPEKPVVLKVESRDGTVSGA

Row | Structure (SMILES) | solubility (physchem [1]) | logD (physchem [2]) | Papp (in vitro [3]) | IC50 [4] | microsomal CLint (in vitro [5]) | microsomal CLint (in vitro [6]) | also measured
1 | COc1ccc(COc2ccc(Cc3cnc(N)nc3N)cc2OC)cc1 [GW632580X] | 0.0012 mg/mL (≈ 3.27 µM) | 2.6 | 110 nm/s | > 10 µM |  |  | 
2 | COc1ccc(COc2ccc(Cn3cnc4cc(C(=O)N5CC6(COC6)C5)cnc43)cc2OC)cn1 |  |  |  | > 10 µM |  |  | 
3 | Cc1nc(-c2cnc(NC(C)C)n(C)c2=O)ccc1Oc1ccnc(-c2cnn(C)c2)c1 [VIMSELTINIB] |  |  |  |  |  |  | IC50 [15]: 0.48 µM

Second part, led by results:

Row | solubility (physchem [1]) | logD (physchem [2]) | Papp (in vitro [3]) | IC50 [4] | microsomal CLint (in vitro [5]) | microsomal CLint (in vitro [6]) | Structure (SMILES) | also measured
4 |  |  |  | > 10 µM |  |  | COc1ccc(COc2ccc(Cn3cnc4cc(C(=O)N(C)C)cnc43)cc2OC)cn1 | 
5 | 0.013 mg/mL (≈ 26 µM) | 1.6 | 20 nm/s | > 10 µM | 21 µL/min/mg | < 7.2 µL/min/mg | COc1ccc(COc2ccc(Cn3cnc4cc(-n5cc(C(C)(C)N)nn5)cnc43)cc2OC)cn1 | 
6 |  |  |  | > 10 µM |  |  | COc1ccc(COc2ccc(Cn3cnc4cc(OC5CCNCC5)cnc43)cc2OC)cn1 | 
7 | 0.057 mg/mL (≈ 121 µM) | 1.5 | 51 nm/s |  | 16 µL/min/mg | 19 µL/min/mg | COc1ccc(COc2ccc(Cn3cnc4cc(C#CC5CCNC5)cnc43)cc2OC)cn1 (centres undefined) | IC50 (Cytochrome P450 3A4): 6.6 µM; AUC(0-inf) (in vivo [7]): 0.542 µg·h/mL; half-life (in vivo [8]): 2 h; clearance (in vivo [9]): 1.86 L/h/kg; Vd (in vivo [10]): 4.89 L/kg; AUC(0-inf) (in vivo [11]): 0.625 µg·h/mL; Cmax (in vivo [12]): 0.108 µg/mL; half-life (in vivo [13]): 1.7 h; bioavailability (in vivo [14]): 36%
8 | > 0.45 mg/mL | 2.3 | 290 nm/s | > 10 µM | 33 µL/min/mg | 130 µL/min/mg | COc1ccc(COc2ccc(Cn3cnc4cc(N5CCN(C)CC5)cnc43)cc2OC)cn1 | 
